Key:
Experiment in all cases: Test G preemergence/postemergence greenhouse plant response rating 0 to 100
johnsongrass = type: in vivo, Sorghum halepense; details: 0 to 100 scale
Outline: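 Scoring: visual injury at 13 to 21 days post-application, compared with untreated controls. Planting: one species per pot in greenhouse medium. Dosing: compound in non-phytotoxic solvent, within one day of sowing for preemergence or at 2–4 leaves for postemergence.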

dallisgrass = type: in vivo, Paspalum dilatatum; details: 0 to 100 scale
Outline: (§1)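 Greenhouse pots, one species each; non-phytotoxic solvent vehicle. Read-out: visual injury vs untreated, 13–21 DAT. Dash denotes no result.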

pitted morningglory = type: in vivo, Ipomoea lacunosa; details: 0 to 100 scale
Outline: as §1

smooth crabgrass = type: in vivo, Digitaria ischaemum; details: 0 to 100 scale
Outline: as §1

large crabgrass = type: in vivo, Digitaria sanguinalis; details: 0 to 100 scale
Outline: as §1

alfalfa = type: in vivo, Medicago ativa; details: 0 to 100 scale
Outline: as §1

guineagrass = type: in vivo, Panicum maximum; details: 0 to 100 scale
Outline: as §1

sandbur = type: in vivo, Cenchrus echinatus; details: 0 to 100 scale
Outline: as §1

annual bluegrass = type: in vivo, Poa annua; details: 0 to 100 scale
Outline: as §1

peanut = type: in vivo, Arachis hypoagaea; details: 0 to 100 scale
Outline: as §1

yellow nutsedge = type: in vivo, Cyperus esculentus; details: Rate 125 g/ha, 0 to 100 scale
Outline: as §1

purple nutsedge = type: in vivo, Cyperus rotundus; details: Rate 125 g/ha, 0 to 100 scale
Outline: as §1

common purslane = type: in vivo, Portulaca oleracea; details: 0 to 100 scale
Outline: as §1

itchgrass = type: in vivo, Rottboellia exaltata; details: 0 to 100 scale
Outline: as §1

goosegrass = type: in vivo, Eleusine indica; details: 0 to 100 scale
Outline: as §1

bermudagrass = type: in vivo, Cynodon dactylon; details: 0 to 100 scale
Outline: as §1

common ragweed = type: in vivo, Ambrosia elatior; details: 0 to 100 scale
Outline: as §1

CCCN1C(=O)COc2cc(F)c(-c3nn4c(c3Cl)CCCC4)cc21 [Compound 32]
Plant response rating, Johnsongrass (johnsongrass; POSTEMERGENCE, Rate 125 g/ha): 0
Plant response rating, Johnsongrass (johnsongrass; POSTEMERGENCE, Rate 250 g/ha): 0
Plant response rating, Johnsongrass (johnsongrass; PREEMERGENCE, Rate 125 g/ha): 0
Plant response rating, Johnsongrass (johnsongrass; PREEMERGENCE, Rate 250 g/ha): 0
Plant response rating, Dallisgrass (dallisgrass; POSTEMERGENCE, Rate 125 g/ha): 0
Plant response rating, Dallisgrass (dallisgrass; POSTEMERGENCE, Rate 250 g/ha): 0
Plant response rating, Dallisgrass (dallisgrass; PREEMERGENCE, Rate 125 g/ha): 0
Plant response rating, Dallisgrass (dallisgrass; PREEMERGENCE, Rate 250 g/ha): 0
Plant response rating, Pit Morninglory (pitted morningglory; POSTEMERGENCE, Rate 125 g/ha): 70
Plant response rating, Pit Morninglory (pitted morningglory; POSTEMERGENCE, Rate 250 g/ha): 30
Plant response rating, Pit Morninglory (pitted morningglory; PREEMERGENCE, Rate 125 g/ha): 0
Plant response rating, Pit Morninglory (pitted morningglory; PREEMERGENCE, Rate 250 g/ha): 0
Plant response rating, Smooth Crabgras (smooth crabgrass; POSTEMERGENCE, Rate 125 g/ha): 0
Plant response rating, Smooth Crabgras (smooth crabgrass; POSTEMERGENCE, Rate 250 g/ha): 0
Plant response rating, Smooth Crabgras (smooth crabgrass; PREEMERGENCE, Rate 125 g/ha): 0
Plant response rating, Smooth Crabgras (smooth crabgrass; PREEMERGENCE, Rate 250 g/ha): 0
Plant response rating, Large Crabgrass (large crabgrass; POSTEMERGENCE, Rate 125 g/ha): 0
Plant response rating, Large Crabgrass (large crabgrass; POSTEMERGENCE, Rate 250 g/ha): 0
Plant response rating, Large Crabgrass (large crabgrass; PREEMERGENCE, Rate 125 g/ha): 0
Plant response rating, Large Crabgrass (large crabgrass; PREEMERGENCE, Rate 250 g/ha): 0
Plant response rating, Alfalfa Var. (alfalfa; POSTEMERGENCE, Rate 125 g/ha): 0
Plant response rating, Alfalfa Var. (alfalfa; POSTEMERGENCE, Rate 250 g/ha): 0
Plant response rating, Alfalfa Var. (alfalfa; PREEMERGENCE, Rate 125 g/ha): 0
Plant response rating, Alfalfa Var. (alfalfa; PREEMERGENCE, Rate 250 g/ha): 0
Plant response rating, Guineagrass (guineagrass; POSTEMERGENCE, Rate 125 g/ha): 0
Plant response rating, Guineagrass (guineagrass; POSTEMERGENCE, Rate 250 g/ha): 0
Plant response rating, Guineagrass (guineagrass; PREEMERGENCE, Rate 125 g/ha): 0
Plant response rating, Guineagrass (guineagrass; PREEMERGENCE, Rate 250 g/ha): 0
Plant response rating, S. Sandbur (sandbur; POSTEMERGENCE, Rate 125 g/ha): 0
Plant response rating, S. Sandbur (sandbur; POSTEMERGENCE, Rate 250 g/ha): 0
Plant response rating, S. Sandbur (sandbur; PREEMERGENCE, Rate 125 g/ha): 0
Plant response rating, S. Sandbur (sandbur; PREEMERGENCE, Rate 250 g/ha): 0
Plant response rating, Ann Bluegrass (annual bluegrass; POSTEMERGENCE, Rate 125 g/ha): 0
Plant response rating, Ann Bluegrass (annual bluegrass; POSTEMERGENCE, Rate 250 g/ha): 0
Plant response rating, Ann Bluegrass (annual bluegrass; PREEMERGENCE, Rate 125 g/ha): 0
Plant response rating, Ann Bluegrass (annual bluegrass; PREEMERGENCE, Rate 250 g/ha): 0
Plant response rating, Peanuts (peanut; POSTEMERGENCE, Rate 125 g/ha): 0
Plant response rating, Peanuts (peanut; POSTEMERGENCE, Rate 250 g/ha): 0
Plant response rating, Peanuts (peanut; PREEMERGENCE, Rate 125 g/ha): 0
Plant response rating, Peanuts (peanut; PREEMERGENCE, Rate 250 g/ha): 0
Plant response rating, Yellow Nutsedge (yellow nutsedge; POSTEMERGENCE): 0
Plant response rating, Yellow Nutsedge (yellow nutsedge; PREEMERGENCE): 0
Plant response rating, Purple Nutsedge (purple nutsedge; POSTEMERGENCE): 10
Plant response rating, Purple Nutsedge (purple nutsedge; PREEMERGENCE): 0
Plant response rating, Cmn Purslane (common purslane; POSTEMERGENCE, Rate 125 g/ha): 100
Plant response rating, Cmn Purslane (common purslane; POSTEMERGENCE, Rate 250 g/ha): 80
Plant response rating, Cmn Purslane (common purslane; PREEMERGENCE, Rate 125 g/ha): 0
Plant response rating, Cmn Purslane (common purslane; PREEMERGENCE, Rate 250 g/ha): 100
Plant response rating, Itchgrass (itchgrass; POSTEMERGENCE, Rate 125 g/ha): 0
Plant response rating, Itchgrass (itchgrass; POSTEMERGENCE, Rate 250 g/ha): 0
Plant response rating, Itchgrass (itchgrass; PREEMERGENCE, Rate 125 g/ha): 0
Plant response rating, Itchgrass (itchgrass; PREEMERGENCE, Rate 250 g/ha): 0
Plant response rating, Goosegrass (goosegrass; POSTEMERGENCE, Rate 125 g/ha): 0
Plant response rating, Goosegrass (goosegrass; POSTEMERGENCE, Rate 250 g/ha): 0
Plant response rating, Goosegrass (goosegrass; PREEMERGENCE, Rate 125 g/ha): 0
Plant response rating, Goosegrass (goosegrass; PREEMERGENCE, Rate 250 g/ha): 0
Plant response rating, Bermudagrass (bermudagrass; POSTEMERGENCE, Rate 125 g/ha): 0
Plant response rating, Bermudagrass (bermudagrass; POSTEMERGENCE, Rate 250 g/ha): 0
Plant response rating, Bermudagrass (bermudagrass; PREEMERGENCE, Rate 125 g/ha): 0
Plant response rating, Bermudagrass (bermudagrass; PREEMERGENCE, Rate 250 g/ha): 0
Plant response rating, Cmn Ragweed (common ragweed; POSTEMERGENCE, Rate 125 g/ha): 100
Plant response rating, Cmn Ragweed (common ragweed; POSTEMERGENCE, Rate 250 g/ha): 60
Plant response rating, Cmn Ragweed (common ragweed; PREEMERGENCE, Rate 125 g/ha): 0
Plant response rating, Cmn Ragweed (common ragweed; PREEMERGENCE, Rate 250 g/ha): 0
